Source: EP1953147A1, “HETEROCYCLIC COMPOUND AND MEDICINAL APPLICATION THEREOF” (priority 2005, dated 2007)
pIC50: −log10 of the molar value. Where a name gives a salt, the structure may show the parent alone.

Tested on: ΔG/SEAP/HCV E1E2
Experiment: Effect of test substance on cell infection with HCV pseudotype virus (SEAP reporter assay in HepG2 cells)
Assay type: cell-based
Details: Hepatitis C virus

| SMILES | pIC50 |
| --- | --- |
| COc1cc(OC)cc(-c2nn(-c3cccc(N4CC[C@H](O)C4)n3)c(=O)c3c2CCC3)c1 [Example 1-7, 4-(3,5-dimethoxy-phenyl)-2-[6-((S)-3-hydroxy-pyrrolidin-1-yl)-pyridin-2-yl]-2,5,6,7-tetrahydro-cyclopenta[d]pyridazin-1-one] | 5.00 to 7.00 |
| CCOC(=O)N1CCc2c(-c3cc(O)cc(O)c3)nn(-c3cc(N4CC[C@H](O)C4)ccc3C(F)(F)F)c(=O)c21 [Example 61, 4-(3,5-dihydroxy-phenyl)-6-[5-((S)-3-hydroxy-pyrrolidin-1-yl)-2-trifluoromethyl-phenyl]-7-oxo-2,3,6,7-tetrahydro-pyrrolo[2,3-d]pyridazine-1-carboxylic acid ethyl ester] | 5.00 to 7.00 |
| COc1cc(C)cc(-c2nn(-c3cc(N4CC[C@@H](O)C4)ccc3C(F)(F)F)c(=O)c3c2CCN3)c1 [Example 22, 6-[5-((R)-3-hydroxy-pyrrolidin-1-yl)-2-trifluoromethyl-phenyl]-4-(3-methoxy-5-methyl-phenyl)-1,2,3,6-tetrahydro-pyrrolo[2,3-d]pyridazin-7-one] | > 7.00 |
| CN(C)c1ccc(-c2nn(-c3cc(N4CC[C@H](O)C4)ccc3C(F)(F)F)c(=O)c3c2CCC3)cc1 [Example 112, 4-(4-dimethylamino-phenyl)-2-[5-((S)-3-hydroxy-pyrrolidin-1-yl)-2-trifluoromethyl-phenyl]-2,5,6,7-tetrahydro-cyclopenta[d]pyridazin-1-one] | > 7.00 |
| COc1cc(OC)cc(-c2nn(-c3ccccc3C(F)(F)F)c(=O)c3c2CCN3)c1 [Example 32, 4-(3,5-dimethoxy-phenyl)-6-(2-trifluoromethylphenyl)-1,2,3,6-tetrahydro-pyrrolo[2,3-d]pyridazin-7-one] | 5.00 to 7.00 |
| Cc1cc(-c2cnco2)cc(-c2nn(-c3cc(N4CC[C@H](O)C4)ccc3C(F)(F)F)c(=O)c3c2CC(C)(C)C3)c1 [Example 6, 2-[5-((S)-3-hydroxy-pyrrolidin-1-yl)-2-trifluoromethyl-phenyl]-6,6-dimethyl-4-(3-methyl-5-oxazol-5-yl-phenyl)-2,5,6,7-tetrahydro-cyclopenta[d]pyridazin-1-one] | > 7.00 |
| COc1cc(C)cc(-c2nn(-c3cc(N4CC[C@H](O)C4)ccc3C(F)(F)F)c(=O)c3c2CCN3)c1 [Example 14, 6-[5-((S)-3-hydroxy-pyrrolidin-1-yl)-2-trifluoromethyl-phenyl]-4-(3-methoxy-5-methyl-phenyl)-1,2,3,6-tetrahydro-pyrrolo[2,3-d]pyridazin-7-one] | > 7.00 |
| COc1cc(OC)cc(-c2nn(-c3cc(NCC(N)=O)ccc3C(F)(F)F)c(=O)c3c2CCC3)c1 [Example 123, 2-{3-[4-(3,5-dimethoxy-phenyl)-1-oxo-1,5,6,7-tetrahydro-cyclopenta[d]pyridazin-2-yl]-4-trifluoromethyl-phenylamino}-acetamide] | > 7.00 |
| COc1ccccc1-c1nn(-c2cc(N3CC[C@H](O)C3)ccc2C(F)(F)F)c(=O)c2c1CCC2 [Example 109, 2-[5-((S)-3-hydroxy-pyrrolidin-1-yl)-2-trifluoromethyl-phenyl]-4-(2-methoxy-phenyl)-2,5,6,7-tetrahydro-cyclopenta[d]pyridazin-1-one] | 5.00 to 7.00 |
| CCNC(=O)CN1CCc2c(-c3cc(OC)cc(OC)c3)nn(-c3cc(N4CC[C@H](O)C4)ccc3C(F)(F)F)c(=O)c21 [Example 33, 2-{4-(3,5-dimethoxy-phenyl)-6-[5-((S)-3-hydroxy-pyrrolidin-1-yl)-2-trifluoromethyl-phenyl]-7-oxo-2,3,6,7-tetrahydro-pyrrolo[2,3-d]pyridazin-1-yl}-N-ethyl-acetamide] | > 7.00 |
| COc1cc(OC)cc(-c2nn(-c3cc(N4CC[C@@H](O)C4)ccc3C(F)(F)F)c(=O)c3c2CCN3C(=O)OC(C)(C)C)c1 [Example 59, 4-(3,5-dimethoxy-phenyl)-6-[5-((R)-3-hydroxy-pyrrolidin-1-yl)-2-trifluoromethyl-phenyl]-7-oxo-2,3,6,7-tetrahydro-pyrrolo[2,3-d]pyridazine-1-carboxylic acid tert-butyl ester] | > 7.00 |
| O=c1c2c(c(-c3ccccc3F)nn1-c1cc(N3CC[C@H](O)C3)ccc1C(F)(F)F)CCC2 [Example 105, 4-(2-fluoro-phenyl)-2-[5-((S)-3-hydroxy-pyrrolidin-1-yl)-2-trifluoromethyl-phenyl]-2,5,6,7-tetrahydro-cyclopenta[d]pyridazin-1-one] | 5.00 to 7.00 |
| COc1cc(OC)cc(-c2nn(-c3cc(NCCO)ccc3C(F)(F)F)c(=O)c3c2CCC3)c1 [Example 91, 4-(3,5-dimethoxy-phenyl)-2-[5-(2-hydroxy-ethylamino)-2-trifluoromethyl-phenyl]-2,5,6,7-tetrahydro-cyclopenta[d]pyridazin-1-one] | > 7.00 |
| CCCCCC(=O)NCCNC(=O)CN1CCc2c(-c3cc(OC)cc(OC)c3)nn(-c3cc(N4CC[C@H](O)C4)ccc3C(F)(F)F)c(=O)c21 [Example 46, hexanoic acid [2-(2-{4-(3,5-dimethoxy-phenyl)-6-[5-((S)-3-hydroxy-pyrrolidin-1-yl)-2-trifluoromethylphenyl]-7-oxo-2,3,6,7-tetrahydro-pyrrolo[2,3-d]pyridazin-1-yl}-acetylamino)-ethyl]-amide] | > 7.00 |
| CCCNc1ccc(C(F)(F)F)c(-n2nc(-c3cc(OC)cc(OC)c3)c3c(c2=O)CCC3)c1 [Example 100, 4-(3,5-dimethoxy-phenyl)-2-(5-propylamino-2-trifluoromethyl-phenyl)-2,5,6,7-tetrahydro-cyclopenta[d]pyridazin-1-one] | > 7.00 |
| O=c1c2c(c(-c3ccc(C(F)(F)F)cc3)nn1-c1cc(N3CC[C@H](O)C3)ccc1C(F)(F)F)CCC2 [Example 75, 2-[5-((S)-3-hydroxy-pyrrolidin-1-yl)-2-trifluoromethyl-phenyl]-4-(4-trifluoromethyl-phenyl)-2,5,6,7-tetrahydro-cyclopenta[d]pyridazin-1-one] | 5.00 to 7.00 |
| COc1cc(OC)cc(-c2nn(-c3cc(N4CC[C@H](O)C4)ccc3OC)c(=O)c3c2CCC3)c1 [Example 1-15, 4-(3,5-dimethoxy-phenyl)-2-[5-((S)-3-hydroxy-pyrrolidin-1-yl)-2-methoxy-phenyl]-2,5,6,7-tetrahydro-cyclopenta[d]pyridazin-1-one] | 5.00 to 7.00 |
| COc1cc(OC)cc(-c2nn(-c3cc(NCCCC(N)=O)ccc3C(F)(F)F)c(=O)c3c2CCC3)c1 [Example 152, 4-{3-[4-(3,5-dimethoxy-phenyl)-1-oxo-1,5,6,7-tetrahydro-cyclopenta[d]pyridazin-2-yl]-4-trifluoromethyl-phenylamino}-butyramide] | > 7.00 |
| COc1cc(OC)cc(-c2nn(-c3cc(NCC4CCCC4)ccc3C(F)(F)F)c(=O)c3c2CCC3)c1 [Example 148, 2-[5-(cyclopentylmethyl-amino)-2-trifluoromethylphenyl]-4-(3,5-dimethoxy-phenyl)-2,5,6,7-tetrahydro-cyclopenta[d]pyridazin-1-one] | 5.00 to 7.00 |
| COc1cc(OC)cc(-c2nn(-c3cc(N4CC[C@H](O)C4)ccc3C(F)(F)F)c(=O)c3c2CCN3C(=O)OC(C)C)c1 [Example 155, 4-(3,5-dimethoxy-phenyl)-6-[5-((S)-3-hydroxy-pyrrolidin-1-yl)-2-trifluoromethyl-phenyl]-7-oxo-2,3,6,7-tetrahydro-pyrrolo[2,3-d]pyridazine-1-carboxylic acid isopropyl ester] | > 7.00 |
| O=c1c2c(c(-c3ccccc3O)nn1-c1cc(N3CC[C@H](O)C3)ccc1C(F)(F)F)CCC2 [Example 111, 4-(2-hydroxy-phenyl)-2-[5-((S)-3-hydroxy-pyrrolidin-1-yl)-2-trifluoromethyl-phenyl]-2,5,6,7-tetrahydro-cyclopenta[d]pyridazin-1-one] | 5.00 to 7.00 |
| O=c1c2c(c(-c3ccc(Br)cc3)nn1-c1cc(N3CC[C@H](O)C3)ccc1C(F)(F)F)CCC2 [Example 90, 4-(4-bromo-phenyl)-2-[5-((S)-3-hydroxy-pyrrolidin-1-yl)-2-trifluoromethyl-phenyl]-2,5,6,7-tetrahydro-cyclopenta[d]pyridazin-1-one] | > 7.00 |
| COc1cc(C)cc(-c2nn(-c3cc(-c4cccnn4)ccc3C(F)(F)F)c(=O)c3c2CCN3)c1 [Example 13, 4-(3-methoxy-5-methyl-phenyl)-6-(5-pyridazin-3-yl-2-trifluoromethyl-phenyl)-1,2,3,6-tetrahydro-pyrrolo[2,3-d]pyridazin-7-one] | > 7.00 |
| COc1cc(C)cc(-c2nn(-c3cc(-c4cccnn4)ccc3C(F)(F)F)c(=O)c3c2CCC3)c1 [Example 1-4, 4-(3-methoxy-5-methyl-phenyl)-2-[5-(pyridazin-3-yl)-2-trifluoromethyl-phenyl]-2,5,6,7-tetrahydro-cyclopenta[d]pyridazin-1-one] | > 7.00 |
| CCOc1ccc(C(F)(F)F)c(-n2nc(-c3cc(OC)cc(OC)c3)c3c(c2=O)CCC3)c1 [Example 62, 4-(3,5-dimethoxy-phenyl)-2-(5-ethoxy-2-trifluoromethyl-phenyl)-2,5,6,7-tetrahydro-cyclopenta[d]pyridazin-1-one] | > 7.00 |
| CCCC(=O)Nc1ccc(C(F)(F)F)c(-n2nc(-c3cc(OC)cc(OC)c3)c3c(c2=O)CCC3)c1 [Example 84, N-{3-[4-(3,5-dimethoxy-phenyl)-1-oxo-1,5,6,7-tetrahydro-cyclopenta[d]pyridazin-2-yl]-4-trifluoromethyl-phenyl}-butyramide] | > 7.00 |
| Cc1cc(-c2nn(-c3cc(N4CC(CO)C4)ccc3C(F)(F)F)c(=O)c3c2CCN3CCO)ccc1F [Example 1-23, 4-(4-fluoro-3-methyl-phenyl)-1-(2-hydroxy-ethyl)-6-[5-(3-hydroxymethyl-azetidin-1-yl)-2-trifluoromethylphenyl]-1,2,3,6-tetrahydro-pyrrolo[2,3-d]pyridazin-7-one] | > 7.00 |
| COc1cc(OC)cc(-c2nn(-c3cc(NCCCN)ccc3C(F)(F)F)c(=O)c3c2CCC3)c1 [Example 127, 2-[5-(3-amino-propylamino)-2-trifluoromethylphenyl]-4-(3,5-dimethoxy-phenyl)-2,5,6,7-tetrahydro-cyclopenta[d]pyridazin-1-one hydrochloride] | > 7.00 |
| COc1cc(OC)cc(-c2nn(-c3cc(NCCN(C)C)ccc3C(F)(F)F)c(=O)c3c2CCC3)c1 [Example 116, 4-(3,5-dimethoxy-phenyl)-2-[5-(2-dimethylamino-ethylamino)-2-trifluoromethyl-phenyl]-2,5,6,7-tetrahydro-cyclopenta[d]pyridazin-1-one] | > 7.00 |
